Consider 17 compounds from ChEMBL document CHEMBL1151168, “Cytotoxic sterols and saponins from the starfish Certonardoa semiregularis” (2004).

Structures are written as SMILES. Converted amounts (≈) assume the structure as drawn.

What all share (assay type): functional
Conditions in all cases: read-out: ED50 (the source's name)

In one assay the test system is SK-MEL-2. The assay can be described thus: Cytotoxicity against human SK-MEL-2 cells.
A further assay deals with SK-OV-3. The assay can be described thus: Cytotoxicity against human SKOV3 cells.
The test system of a further assay is XF498. The assay can be described thus: Cytotoxicity against human XF498 cells.
Another assay has as its system HCT-15. The assay can be described thus: Cytotoxicity against human HCT15 cells.
A further assay relates to A549. The assay can be described thus: Cytotoxicity against human A549 cells.

As to `CC(C)[C@@H](CCO)CC[C@@H](C)[C@H]1[C@@H](O)[C@@H](O)[C@H]2[C@@H]3C[C@H](O)[C@H]4C[C@@H](O)CC[C@]4(C)[C@H]3CC[C@]12C` [CERTONARDOSTEROL N1], the EC50 in the assay with SK-MEL-2 was found to be 0.4 µg/mL (≈ 0.832 µM); in the assay on SK-OV-3, 0.9 µg/mL (≈ 1.87 µM); with XF498, 0.43 µg/mL (≈ 0.894 µM); in the assay on HCT-15 it was 1.25 µg/mL (≈ 2.6 µM); in the assay with A549, 0.82 µg/mL (≈ 1.71 µM).

On to `C[C@H](/C=C/[C@@H](C)[C@H]1C[C@@H](O)[C@H]2[C@@H]3C[C@H](O)[C@H]4C[C@@H](O)CC[C@]4(C)[C@H]3CC[C@@]21C)[C@H](C)CO` [CERTONARDOSTEROL D4], for which the EC50 amounted to 0.48 µg/mL (≈ 1.07 µM) in the assay on SK-MEL-2; 1.51 µg/mL (≈ 3.37 µM) in the assay on SK-OV-3; 1.22 µg/mL (≈ 2.72 µM) in the assay on XF498; 1.25 µg/mL (≈ 2.79 µM) in the assay on HCT-15; 1.75 µg/mL (≈ 3.9 µM) in the assay with A549.

For the compound `CC(C)[C@@H](CCO)CC[C@@H](C)[C@H]1[C@@H](O)[C@@H](O)[C@@H]2[C@]1(C)CC[C@@H]1[C@@]3(C)CC[C@H](O)C[C@@H]3[C@@H](O)C[C@]12O` [CERTONARDOSTEROL O1], the EC50 was determined as 5.32 µg/mL (≈ 10.7 µM) in the assay with SK-MEL-2; 6.59 µg/mL (≈ 13.3 µM) in the assay with SK-OV-3; 6.92 µg/mL (≈ 13.9 µM) with XF498; 17.7 µg/mL (≈ 35.6 µM) in the assay with HCT-15; 8.32 µg/mL (≈ 16.7 µM) in the assay on A549.

With `COc1cccc2c1C(=O)c1c(O)c3c(c(O)c1C2=O)C[C@@](O)(C(=O)CO)C[C@@H]3O[C@H]1C[C@H](N)[C@H](O)[C@H](C)O1` [DOXORUBICIN], the EC50 in the assay on SK-MEL-2 amounted to 0.02 µg/mL (≈ 0.0368 µM); in the assay with SK-OV-3, 0.08 µg/mL (≈ 0.147 µM); in the assay with XF498, 0.06 µg/mL (≈ 0.11 µM); in the assay on HCT-15, 0.06 µg/mL (≈ 0.11 µM); with A549 it was 0.01 µg/mL (≈ 0.0184 µM).

Regarding `CO[C@@H]1CO[C@@H](OCC[C@@H](CC[C@@H](C)[C@H]2[C@@H](O)[C@@H](O)[C@@H]3[C@]2(C)CC[C@@H]2[C@@]4(C)CC[C@H](O)[C@H](O)[C@@H]4[C@@H](O)C[C@]23O)C(C)C)[C@H](O)[C@H]1O` [CERTONARDOSIDE I2], the EC50 was determined as 2.39 µg/mL (≈ 3.63 µM) in the assay with SK-MEL-2; 3.06 µg/mL (≈ 4.64 µM) in the assay with SK-OV-3; 3.69 µg/mL (≈ 5.6 µM) in the assay on XF498; 8.32 µg/mL (≈ 12.6 µM) with HCT-15; 4.26 µg/mL (≈ 6.47 µM) in the assay on A549.

For the compound `CO[C@@H]1CO[C@@H](OCC[C@@H](CC[C@@H](C)[C@H]2[C@@H](O)[C@@H](O)[C@H]3[C@@H]4C[C@H](O)[C@H]5C[C@@H](O)CC[C@]5(C)[C@H]4CC[C@]23C)C(C)C)[C@H](O)[C@H]1O` [CERTONARDOSIDE O1], the EC50 came to 0.68 µg/mL (≈ 1.08 µM) in the assay with SK-MEL-2; 2 µg/mL (≈ 3.19 µM) in the assay on SK-OV-3; 0.74 µg/mL (≈ 1.18 µM) in the assay with XF498; 2.28 µg/mL (≈ 3.64 µM) in the assay with HCT-15; 1.25 µg/mL (≈ 1.99 µM) in the assay with A549.

In the case of `CC(C)[C@H](/C=C/[C@@H](C)[C@H]1C[C@@H](O)[C@H]2[C@@H]3C[C@H](O)[C@H]4C[C@@H](O)CC[C@]4(C)[C@H]3CC[C@@]21C)CO` [CERTONARDOSTEROL D2], the EC50 in the assay on SK-MEL-2 was determined as 0.09 µg/mL (≈ 0.201 µM); in the assay on SK-OV-3 it was 0.08 µg/mL (≈ 0.178 µM); with XF498, 0.07 µg/mL (≈ 0.156 µM); in the assay with HCT-15, 0.01 µg/mL (≈ 0.0223 µM); in the assay on A549, 0.15 µg/mL (≈ 0.334 µM).

For `C[C@H](/C=C/[C@@H](C)[C@H]1CC(O)[C@H]2[C@@H]3CC(O)[C@H]4C[C@@H](O)CC[C@]4(C)[C@H]3CC[C@]12C)[C@H](C)CO` (single isomer, unassigned) [CERTONARDOSTEROL E3], the EC50 with SK-MEL-2 came to 0.4 µg/mL (≈ 0.891 µM); with SK-OV-3 it was 0.69 µg/mL (≈ 1.54 µM); in the assay with XF498 it was 0.33 µg/mL (≈ 0.735 µM); in the assay on HCT-15, 0.73 µg/mL (≈ 1.63 µM); with A549, 0.54 µg/mL (≈ 1.2 µM).

With `CC(C)[C@@H](CCO)CC[C@@H](C)[C@H]1C[C@H](O)[C@H]2[C@@H]3C[C@@H](O)[C@H]4C[C@@H](O)CC[C@]4(C)[C@H]3CC[C@@]21C` [CERTONARDOSTEROL E2], the EC50 in the assay with SK-MEL-2 turned out to be 0.28 µg/mL (≈ 0.602 µM); in the assay with SK-OV-3, 0.83 µg/mL (≈ 1.79 µM); in the assay with XF498 it was 0.4 µg/mL (≈ 0.861 µM); in the assay with HCT-15, 1.26 µg/mL (≈ 2.71 µM); in the assay on A549, 0.48 µg/mL (≈ 1.03 µM).

Turning to `CC(C)[C@@H](CCO)CC[C@@H](C)[C@H]1[C@@H](O)[C@@H](O)[C@@H]2[C@]1(C)CC[C@@H]1[C@@]3(C)CC[C@H](O)[C@H](O)[C@@H]3[C@@H](O)C[C@]12O` [CERTONARDOSTEROL P1], the EC50 with SK-MEL-2 was found to be 2.5 µg/mL (≈ 4.88 µM); in the assay with SK-OV-3, 3.5 µg/mL (≈ 6.83 µM); with XF498 it was 3.48 µg/mL (≈ 6.79 µM); in the assay on HCT-15, 4.39 µg/mL (≈ 8.56 µM); with A549, 3.3 µg/mL (≈ 6.44 µM).

With `CO[C@@H]1CO[C@@H](OCC[C@@H](CC[C@@H](C)[C@H]2[C@@H](O)[C@@H](O)[C@H]3[C@@H]4C[C@H](O)[C@H]5[C@@H](O)[C@@H](O)CC[C@]5(C)[C@H]4CC[C@]23C)C(C)C)[C@H](O)[C@H]1O` [CERTONARDOSIDE J2], the EC50 is 2.36 µg/mL (≈ 3.67 µM) in the assay with SK-MEL-2; 3.29 µg/mL (≈ 5.12 µM) in the assay with SK-OV-3; 3.53 µg/mL (≈ 5.49 µM) with XF498; 8.2 µg/mL (≈ 12.8 µM) with HCT-15; 3.41 µg/mL (≈ 5.3 µM) with A549.

Take `CO[C@@H]1CO[C@@H](OCC[C@@H](/C=C/[C@@H](C)[C@H]2[C@@H](O)[C@@H](O)[C@H]3[C@@H]4C[C@H](O)[C@H]5[C@@H](O)[C@@H](O)CC[C@]5(C)[C@H]4CC[C@]23C)C(C)C)[C@H](O)[C@H]1O` [CERTONARDOSIDE J3]: the EC50 with SK-MEL-2 was found to be 0.3 µg/mL (≈ 0.468 µM); in the assay with SK-OV-3, 0.74 µg/mL (≈ 1.15 µM); in the assay with XF498 it was 0.45 µg/mL (≈ 0.702 µM); with HCT-15 it was 2.76 µg/mL (≈ 4.31 µM); in the assay with A549 it was 0.83 µg/mL (≈ 1.3 µM).

Consider `C[C@H](/C=C/[C@@H](C)[C@H]1C[C@@H](O)[C@@H]2[C@]1(C)CC[C@@H]1[C@@]3(C)CC[C@H](O)[C@H](O)[C@@H]3[C@@H](O)C[C@]12O)[C@H](C)CO` [CERTONARDOSTEROL A2], for which the EC50 in the assay on SK-MEL-2 turned out to be 0.67 µg/mL (≈ 1.39 µM); with SK-OV-3, 1.13 µg/mL (≈ 2.35 µM); in the assay on XF498, 0.89 µg/mL (≈ 1.85 µM); in the assay with HCT-15 it was 2.54 µg/mL (≈ 5.28 µM); in the assay on A549, 1.75 µg/mL (≈ 3.64 µM).

As to `CC(C)[C@@H](CCO)CC[C@@H](C)[C@H]1C[C@@H](O)[C@H]2[C@@H]3C[C@H](O)[C@H]4C[C@@H](O)CC[C@]4(C)[C@H]3CC[C@@]21C` [CERTONARDOSTEROL D3], the EC50 stood at 0.68 µg/mL (≈ 1.46 µM) in the assay on SK-MEL-2; 1.33 µg/mL (≈ 2.86 µM) in the assay with SK-OV-3; 0.84 µg/mL (≈ 1.81 µM) in the assay on XF498; 2.48 µg/mL (≈ 5.34 µM) in the assay on HCT-15; 1.36 µg/mL (≈ 2.93 µM) with A549.

For the compound `C[C@H](/C=C/[C@@H](C)[C@H]1C[C@@H](O)[C@H]2[C@@H]3C[C@H](O)[C@H]4[C@@H](O)[C@@H](O)CC[C@]4(C)[C@H]3CC[C@@]21C)[C@H](C)CO` [CERTONARDOSTEROL B2], the EC50 in the assay on SK-MEL-2 came out at 2.23 µg/mL (≈ 4.8 µM); in the assay with SK-OV-3 it was 2.64 µg/mL (≈ 5.68 µM); in the assay with XF498 it was 2.21 µg/mL (≈ 4.76 µM); with HCT-15, 2.71 µg/mL (≈ 5.83 µM); with A549, 2.33 µg/mL (≈ 5.01 µM).

With `C[C@H](/C=C/[C@@H](C)[C@H]1C[C@@H](O)[C@@H]2[C@]1(C)CC[C@@H]1[C@@]3(C)CC[C@H](O)C[C@@H]3[C@@H](O)C[C@]12O)[C@H](C)CO` [CERTONARDOSTEROL C2], the EC50 is under 0.1 µg/mL in the assay on SK-MEL-2; 0.16 µg/mL (≈ 0.344 µM) in the assay with SK-OV-3; 0.08 µg/mL (≈ 0.172 µM) in the assay on XF498; 0.25 µg/mL (≈ 0.538 µM) in the assay with HCT-15; 0.15 µg/mL (≈ 0.323 µM) with A549.

On to `CO[C@@H]1CO[C@@H](OCC[C@@H](CC[C@@H](C)[C@H]2[C@@H](O)[C@@H](O)[C@@H]3[C@]2(C)CC[C@@H]2[C@@]4(C)CC[C@H](O)C[C@@H]4[C@@H](O)C[C@]23O)C(C)C)[C@H](O)[C@H]1O` [CERTONARDOSIDE P1], for which the EC50 with SK-MEL-2 stood at 0.26 µg/mL (≈ 0.404 µM); in the assay with SK-OV-3, 0.89 µg/mL (≈ 1.38 µM); in the assay with XF498, 0.35 µg/mL (≈ 0.544 µM); with HCT-15 it was 2.17 µg/mL (≈ 3.38 µM); in the assay with A549, 0.87 µg/mL (≈ 1.35 µM).
